Measurements from ChEMBL document CHEMBL1152182, “Synthesis and structure-activity relationship of 7-azaindole piperidine derivatives as CCR2 antagonists” (Bioorg Med Chem Lett, 2008).

Legend:
[1] = target: C-C chemokine receptor type 2 (Homo sapiens, UniProt P41597); test: Antagonist activity at human CCR2; assay type: functional
[2] = target: T1, Cytochrome P450 1A2 (Homo sapiens, UniProt P05177); test: Inhibition of human CYP1A2; assay type: ADME
T1 sequence (P05177 whole entry): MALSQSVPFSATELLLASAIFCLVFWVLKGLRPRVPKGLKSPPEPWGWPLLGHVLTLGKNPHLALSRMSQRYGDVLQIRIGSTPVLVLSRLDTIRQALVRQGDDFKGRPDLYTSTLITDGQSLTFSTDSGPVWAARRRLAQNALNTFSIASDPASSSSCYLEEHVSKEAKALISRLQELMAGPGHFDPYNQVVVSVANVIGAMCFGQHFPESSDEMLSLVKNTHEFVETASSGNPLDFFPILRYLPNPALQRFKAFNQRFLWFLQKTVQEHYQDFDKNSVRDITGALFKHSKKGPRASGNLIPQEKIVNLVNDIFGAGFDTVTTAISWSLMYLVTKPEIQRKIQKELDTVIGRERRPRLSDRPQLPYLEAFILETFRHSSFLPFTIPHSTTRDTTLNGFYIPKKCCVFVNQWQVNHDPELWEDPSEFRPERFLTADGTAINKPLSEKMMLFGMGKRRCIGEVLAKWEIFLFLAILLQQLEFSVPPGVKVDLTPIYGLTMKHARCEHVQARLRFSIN

[3] = target: Cytochrome P450 2D6 (Homo sapiens, UniProt P10635); test: Inhibition of human CYP2D6; assay type: ADME
Chain of Cytochrome P450 2D6 (P10635 whole entry): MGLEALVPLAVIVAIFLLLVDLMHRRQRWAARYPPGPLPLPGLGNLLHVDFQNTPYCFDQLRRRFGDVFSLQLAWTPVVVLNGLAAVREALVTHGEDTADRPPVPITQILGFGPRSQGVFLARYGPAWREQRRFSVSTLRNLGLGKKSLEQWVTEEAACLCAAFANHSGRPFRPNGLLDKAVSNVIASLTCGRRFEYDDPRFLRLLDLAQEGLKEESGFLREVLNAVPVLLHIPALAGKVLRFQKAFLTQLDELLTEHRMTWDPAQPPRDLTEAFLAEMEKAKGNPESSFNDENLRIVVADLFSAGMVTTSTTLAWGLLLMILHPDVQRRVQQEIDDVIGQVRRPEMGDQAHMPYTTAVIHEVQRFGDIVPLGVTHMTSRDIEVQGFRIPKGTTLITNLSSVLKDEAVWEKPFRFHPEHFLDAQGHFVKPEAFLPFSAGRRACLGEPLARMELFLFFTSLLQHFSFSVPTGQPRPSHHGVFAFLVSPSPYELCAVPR

[4] = target: Cytochrome P450 2C19 (Homo sapiens, UniProt P33261); test: Inhibition of human CYP2C19; assay type: ADME
Chain of Cytochrome P450 2C19 (P33261 whole entry): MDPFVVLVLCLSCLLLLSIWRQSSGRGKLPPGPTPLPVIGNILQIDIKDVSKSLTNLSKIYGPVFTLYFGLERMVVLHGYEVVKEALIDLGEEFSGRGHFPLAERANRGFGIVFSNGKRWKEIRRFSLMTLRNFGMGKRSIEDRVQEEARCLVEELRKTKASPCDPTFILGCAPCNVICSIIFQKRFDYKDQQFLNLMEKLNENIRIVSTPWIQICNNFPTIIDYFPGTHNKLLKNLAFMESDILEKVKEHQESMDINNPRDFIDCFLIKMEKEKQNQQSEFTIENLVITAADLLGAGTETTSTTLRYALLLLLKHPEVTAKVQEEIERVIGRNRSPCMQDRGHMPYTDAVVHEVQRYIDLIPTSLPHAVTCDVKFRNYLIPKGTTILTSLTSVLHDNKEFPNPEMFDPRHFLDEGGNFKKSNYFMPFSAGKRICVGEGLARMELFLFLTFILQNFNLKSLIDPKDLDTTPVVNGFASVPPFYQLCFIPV

[5] = target: T2, Cytochrome P450 3A4 (Homo sapiens, UniProt P08684); test: Inhibition of human CYP3A4 using 7-benzyloxy-4-trifluoromethylcoumarin as substrate; assay type: ADME
T2 sequence (P08684 whole entry): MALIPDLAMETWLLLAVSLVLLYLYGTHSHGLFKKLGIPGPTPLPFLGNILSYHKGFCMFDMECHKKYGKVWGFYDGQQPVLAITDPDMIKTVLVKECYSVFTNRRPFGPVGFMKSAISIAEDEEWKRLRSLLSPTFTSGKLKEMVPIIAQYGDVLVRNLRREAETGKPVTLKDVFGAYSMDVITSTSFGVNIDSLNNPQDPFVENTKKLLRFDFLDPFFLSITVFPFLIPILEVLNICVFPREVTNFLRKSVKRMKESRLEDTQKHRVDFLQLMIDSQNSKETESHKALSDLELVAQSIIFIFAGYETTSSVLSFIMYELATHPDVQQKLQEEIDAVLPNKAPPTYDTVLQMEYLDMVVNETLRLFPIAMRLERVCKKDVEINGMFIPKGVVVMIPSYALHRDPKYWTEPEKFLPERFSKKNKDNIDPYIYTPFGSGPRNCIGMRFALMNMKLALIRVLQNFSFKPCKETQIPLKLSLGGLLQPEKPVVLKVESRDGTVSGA

[6] = target: T2, Cytochrome P450 3A4; test: Inhibition of human CYP3A4 using 7-benzyloxyquinoline as substrate; assay type: ADME
[7] = target: T2, Cytochrome P450 3A4; test: Inhibition of human CYP3A4 using dibenzylfluorescein as substrate; assay type: ADME
[8] = Oral bioavailability in rat at 10 mg/kg; assay type: ADME, organism-based; settings: in vivo
[9] = Cmax in rat at 10 mg/kg, po; assay type: ADME, organism-based; design: dose 10 mg/kg, route oral; settings: in vivo
[10] = Half life in rat at 10 mg/kg, po; assay type: ADME, organism-based; design: dose 10 mg/kg, route oral; settings: in vivo

Chain of C-C chemokine receptor type 2 (P41597 whole entry): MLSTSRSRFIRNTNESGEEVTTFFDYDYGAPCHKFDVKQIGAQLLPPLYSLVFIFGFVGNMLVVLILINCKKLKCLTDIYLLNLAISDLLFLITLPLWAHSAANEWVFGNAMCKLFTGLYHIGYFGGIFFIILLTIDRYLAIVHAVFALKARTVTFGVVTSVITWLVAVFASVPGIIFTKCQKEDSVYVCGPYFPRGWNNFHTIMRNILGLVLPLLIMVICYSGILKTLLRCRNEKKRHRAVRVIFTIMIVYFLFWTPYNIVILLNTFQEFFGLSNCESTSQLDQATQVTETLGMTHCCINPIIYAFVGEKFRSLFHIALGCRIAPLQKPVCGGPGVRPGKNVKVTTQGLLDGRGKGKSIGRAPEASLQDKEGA

## O=C(/C=C/c1cc(F)cc(F)c1)N1CCC([C@@H](CO)N2CCC(c3c[nH]c4ncccc34)CC2)CC1
[1]
  IC50: 0.004 µM
[2]
  IC50: > 40 µM
[3]
  IC50: 13.3 µM
[4]
  IC50: 27.1 µM
[5]
  IC50: 25.2 µM
[6]
  IC50: > 40 µM
[7]
  IC50: 20.6 µM
[8]
  bioavailability: 36%
[9]
  Cmax: 0.341 µg/mL
[10]
  half-life: 5.6 h

## O=C(O)C(C1CCN(C(=O)/C=C/c2cc(F)c(F)c(F)c2)CC1)N1CCC(c2c[nH]c3ncccc23)CC1 (stereo unspecified)
[1]
  IC50: 0.017 µM

## O=C(/C=C/c1cc(F)c(F)c(F)c1)N1CCC(CN2CCC(c3c[nH]c4ncccc34)CC2)CC1
[1]
  IC50: 1.3 µM

## O=C(Nc1ccc(Cl)c(Cl)c1)N1CCC(C(CO)N2CCC(c3c[nH]c4ncccc34)CC2)CC1 (racemic)
[1]
  IC50: 0.014 µM

## O=C(/C=C/c1cc(F)c(F)c(F)c1)N1CCC(C(CO)N2CCC(c3c[nH]c4ncccc34)CC2)CC1 (racemic)
[1]
  IC50: 0.007 µM

## O=C(/C=C/c1cc(F)cc(F)c1)N1CCC(C(CO)N2CCC(c3c[nH]c4ncccc34)CC2)CC1 (racemic)
[1]
  IC50: 0.006 µM

## O=C(/C=C/c1ccc(Cl)c(Cl)c1)N1CCC(C(CO)N2CCC(c3c[nH]c4ncccc34)CC2)CC1 (racemic)
[1]
  IC50: 0.006 µM
